# Like-named read-outs stand apart in the source and are kept apart here.
# Key:
# [1] = tested on: E. coli Juhl; assay: Protective dose, mice infected with lethal inoculum, oral treatment, E. coli Juhl; assay type: in vivo; conditions: Escherichia coli, po, 120 h, read-out: Protective dose (PD50), E. coli Juhl
# [2] = tested on: Gp Ib: S. aureus 193, BX-1633-2 A9606, A15092, Russell, A9602; conditions: Staphylococcus aureus
# [3] = tested on: S. aureus Smith; assay: Protective dose, mice infected with lethal inoculum, oral treatment, S. aureus Smith; assay type: in vivo; conditions: Staphylococcus aureus, po, 120 h, read-out: Protective dose (PD50), S. aureus Smith
# [4] = tested on: Gp Ia: S. aureus Smith A9537, A9497, Terajima, A9534, A9601; conditions: Staphylococcus aureus, read-out: Minimum Inhibitory Concentration Gp Ia, Mueller-Hinton agar, average of five organisms
# [5] = in vivo; conditions: mouse; for half-life: T1/2
# [6] = tested on: N. meningitidis; assay: In vitro activity against Neisseria (MIC), N. meningitidis; assay type: cell-based
# [7] = tested on: S. pyogenes; assay: In vitro activity against Streptococci (MIC), S. pyogenes; assay type: cell-based; conditions: Streptococcus pyogenes, Compound 9 lot 2
# [8] = tested on: N. gonorrheae; assay: In vitro activity against Neisseria (MIC), N. gonorrheae; assay type: cell-based
# [9] = tested on: S. pneumoniae; assay: In vitro activity against Streptococci (MIC), S. pneumoniae; assay type: cell-based; conditions: Streptococcus pneumoniae, Compound 9 lot 2
# [10] = tested on: H. influenzae; assay: In vitro activity against Haemophilis (MIC), H. influenzae; assay type: cell-based; conditions: Haemophilus influenzae, Compound 9 lot 2
# [11] = mouse, in vivo, po
# [12] = read-out: Minimum Inhibitory Concentration Gp Ib, Mueller-Hinton agar, run 1, average of five organisms
# [13] = oral, 50% survival for 5 days, groups of 5 mice
smiles,measurement,setting,value
CC/C=C\C1=C(C(=O)[O-])N2C(=O)[C@@H](NC(=O)[C@H](N)c3ccc(O)cc3)[C@H]2SC1.[Na+],ED50,[1],3 mg/kg
same,MIC,[2]; read-out: Minimum Inhibitory Concentration Gp Ib,1.4 µg/mL
same,ED50,[3],0.32 mg/kg
same,MIC,[4]; run 1,0.4 µg/mL
same,AUC,"[5]; im, 20 mg/kg, AUC*, Run 1, * mean of 3 runs",20000 ng·h/mL
same,Cmax,"[5]; im, 20 mg/kg",25000 ng/mL
same,half-life,"[5]; im, 20 mg/kg",0.74 h
same,AUC,"[5]; po, 20 mg/kg, AUC*, Run 1, * mean of 3 runs",41000 ng·h/mL
same,Cmax,"[5]; po, 20 mg/kg",13000 ng/mL
same,half-life,"[5]; po, 20 mg/kg",2 h
same,AUC,"[5]; po, 100 mg/kg, AUC",150000 ng·h/mL
same,Cmax,"[5]; po, 100 mg/kg",51000 ng/mL
same,half-life,"[5]; po, 100 mg/kg",1.9 h
"COC/C=C\C1=C(C(=O)O)N2C(=O)[C@@H](NC(=O)[C@H](N)c3ccc(O)cc3)[C@H]2SC1 [Compound 17, 7β-[D-2-Amino-2-(p-hydroxyphenyl)acetamido]-3-[(Z)-3-methoxy-1-propen-1-yl]-3-cephem-4-carboxylic Acid]",MIC,[2]; [12],2.1 µg/mL
same,MIC,[4]; run 1,0.53 µg/mL
same,AUC,"[5]; im, 20 mg/kg, AUC*",19000 ng·h/mL
same,Cmax,"[5]; im, 20 mg/kg",24000 ng/mL
same,half-life,"[5]; im, 20 mg/kg",0.6 h
same,AUC,"[5]; po, 20 mg/kg, AUC*",28000 ng·h/mL
same,Cmax,"[5]; po, 20 mg/kg",18000 ng/mL
same,half-life,"[5]; po, 20 mg/kg",1.6 h
same,AUC,"[5]; po, 100 mg/kg, AUC",197000 ng·h/mL
same,Cmax,"[5]; po, 100 mg/kg",73000 ng/mL
same,half-life,"[5]; po, 100 mg/kg",1.7 h
C=CC1=C(C(=O)O)N2C(=O)[C@@H](NC(=O)[C@H](N)c3ccc(O)cc3)[C@H]2SC1 [Compound 11],ED50,[1]; [13],3.8 mg/kg
same,MIC,[2]; [12],1.2 µg/mL
same,ED50,[3]; [13],0.18 mg/kg
same,MIC,[4]; run 1,0.4 µg/mL
same,AUC,"[5]; im, 20 mg/kg, AUC*",15000 ng·h/mL
same,Cmax,"[5]; im, 20 mg/kg",23000 ng/mL
same,half-life,"[5]; im, 20 mg/kg",0.37 h
same,AUC,"[5]; po, 20 mg/kg, AUC*",13000 ng·h/mL
same,Cmax,"[5]; po, 20 mg/kg",11000 ng/mL
same,half-life,"[5]; po, 20 mg/kg",1.4 h
same,AUC,"[5]; po, 100 mg/kg, AUC",49000 ng·h/mL
same,Cmax,"[5]; po, 100 mg/kg",43000 ng/mL
same,half-life,"[5]; po, 100 mg/kg",1.2 h
"C/C=C/C1=C(C(=O)O)N2C(=O)[C@@H](NC(=O)[C@H](N)c3ccc(O)cc3)[C@H]2SC1 [Compound 8, 7β-[D-2-Amino-2-(p-hydroxyphenyl)acetamido]-3-[(E)-1-propen-1-yl]-3-cephem-4-carboxylic Acid]",ED50,[1]; [13],7.5 mg/kg
same,MIC,[2]; [12],1.4 µg/mL
same,ED50,[3]; [13],0.2 mg/kg
same,MIC,[4]; run 1,0.26 µg/mL
same,AUC,"[5]; im, 20 mg/kg, AUC*",31000 ng·h/mL
same,Cmax,"[5]; im, 20 mg/kg",31000 ng/mL
same,half-life,"[5]; im, 20 mg/kg",0.63 h
same,AUC,"[5]; po, 20 mg/kg, AUC*",22000 ng·h/mL
same,Cmax,"[5]; po, 20 mg/kg",10000 ng/mL
same,half-life,"[5]; po, 20 mg/kg",1.3 h
same,AUC,"[5]; po, 100 mg/kg, AUC",69000 ng·h/mL
same,Cmax,"[5]; po, 100 mg/kg",30000 ng/mL
same,half-life,"[5]; po, 100 mg/kg",1.4 h
"C/C=C\C1=C(C(=O)O)N2C(=O)[C@@H](NC(=O)[C@H](N)c3ccc(O)c(Cl)c3)[C@H]2SC1 [Compound 32, 7β-[D-2-Amino-2-(3-chloro-4-hydroxyphenyl)acetamido]-3-[(Z)-1-propen-1-yl]-3-cephem-4-carboxylic acid]",ED50,[1]; [13],3.04 mg/kg
same,MIC,"[2]; read-out: Minimum Inhibitory Concentration Gp Ib, Mueller-Hinton agar, run 2, average of five organisms",0.53 µg/mL
same,ED50,[3]; [13],0.17 mg/kg
same,MIC,[4]; run 2,0.13 µg/mL
same,AUC,"[5]; im, 20 mg/kg, AUC*",13000 ng·h/mL
same,Cmax,"[5]; im, 20 mg/kg",21000 ng/mL
same,half-life,"[5]; im, 20 mg/kg",0.48 h
same,AUC,"[5]; po, 20 mg/kg, AUC*",13000 ng·h/mL
same,Cmax,"[5]; po, 20 mg/kg",7900 ng/mL
same,half-life,"[5]; po, 20 mg/kg",1.7 h
same,AUC,"[5]; po, 100 mg/kg, AUC",37000 ng·h/mL
same,Cmax,"[5]; po, 100 mg/kg",25000 ng/mL
same,half-life,"[5]; po, 100 mg/kg",1.7 h
"N[C@@H](C(=O)N[C@@H]1C(=O)N2C(C(=O)O)=C(/C=C\Cc3ccccc3)CS[C@H]12)c1ccc(O)cc1 [Compound 15, 7β-[D-2-Amino-2-(p-hydroxyphenyl)acetamido]-3-[(Z)-3-phenyl-1-propen-1-yl]-3-cephem-4-carboxylic acid]",MIC,"[6]; N. meningitidis A21487, Compound 9 lot 2",> 100 µg/mL
same,MIC,"[6]; N. meningitidis A21496, Compound 9 lot 2",> 100 µg/mL
same,MIC,"[6]; N. meningitidis A21497, Compound 9 lot 2",> 100 µg/mL
same,MIC,"[6]; Neisseria meningitidis, read-out: MIC",> 100 µg/mL
same,MIC,"[6]; Neisseria meningitidis, read-out: MIC, Geometric Mean",> 100 µg/mL
same,MIC,"[7]; S. pyogenes A9604, read-out: MIC",0.2 µg/mL
same,MIC,"[7]; S. pyogenes A15040, read-out: MIC",0.2 µg/mL
same,MIC,"[7]; S. pyogenes A20065, read-out: MIC",0.2 µg/mL
same,MIC,"[7]; S. pyogenes A20201, read-out: MIC",0.2 µg/mL
same,MIC,"[7]; S. pyogenes Dick, read-out: MIC",0.2 µg/mL
same,MIC,"[7]; S. pyogenes S-23, Dick, A9604, A20065, A15040, read-out: MIC, Geometric Mean",0.2 µg/mL
same,MIC,"[7]; S. pyogenes S-23, read-out: MIC",0.2 µg/mL
same,MIC,"[8]; N. gonorrheae A20142, Compound 9 lot 2",> 100 µg/mL
same,MIC,"[8]; N. gonorrheae A20143, Compound 9 lot 2",> 100 µg/mL
same,MIC,"[8]; N. gonorrheae A20154, Compound 9 lot 2",> 100 µg/mL
same,MIC,"[8]; N. gonorrheae A20155, Compound 9 lot 2",> 100 µg/mL
same,MIC,[8]; read-out: MIC,> 100 µg/mL
same,MIC,"[8]; read-out: MIC, Geometric Mean",> 100 µg/mL
same,MIC,[2]; [12],0.7 µg/mL
same,MIC,"[9]; S. pneumoniae A9585, read-out: MIC",0.4 µg/mL
same,MIC,"[9]; S. pneumoniae A15069, read-out: MIC",0.2 µg/mL
same,MIC,"[9]; S. pneumoniae A20759, read-out: MIC",0.4 µg/mL
same,MIC,"[9]; S. pneumoniae Type I, read-out: MIC",0.2 µg/mL
same,MIC,"[9]; S. pneumoniae Type II, I, III, A9585, A15069, read-out: MIC, Geometric Mean",0.23 µg/mL
same,MIC,"[9]; S. pneumoniae Type II, read-out: MIC",0.2 µg/mL
same,MIC,"[9]; S. pneumoniae Type III, read-out: MIC",0.2 µg/mL
same,MIC,[4]; run 1,0.2 µg/mL
same,MIC,"[10]; H. influenzae A9729, read-out: MIC",> 100 µg/mL
same,MIC,"[10]; H. influenzae A9833, read-out: MIC",> 100 µg/mL
same,MIC,"[10]; H. influenzae A20177, read-out: MIC",> 100 µg/mL
same,MIC,"[10]; H. influenzae A20193, read-out: MIC",> 100 µg/mL
same,MIC,"[10]; H. influenzae A21523, read-out: MIC",> 100 µg/mL
same,MIC,"[10]; H. influenzae A22157, read-out: MIC",25 µg/mL
same,MIC,"[10]; H. influenzae A22481, read-out: MIC",25 µg/mL
same,MIC,"[10]; H. influenzae A22482, read-out: MIC",> 100 µg/mL
same,MIC,"[10]; H. influenzae A22483, read-out: MIC",> 100 µg/mL
same,MIC,"[10]; H. influenzae A22491, read-out: MIC",25 µg/mL
same,MIC,"[10]; H. influenzae, seven strains above, read-out: MIC, Geometric Mean",> 100 µg/mL
same,AUC,"[5]; im, 20 mg/kg, AUC*",52000 ng·h/mL
same,Cmax,"[5]; im, 20 mg/kg",31000 ng/mL
same,half-life,"[5]; im, 20 mg/kg",0.99 h
same,AUC,"[5]; po, 20 mg/kg, AUC*",38000 ng·h/mL
same,Cmax,"[5]; po, 20 mg/kg",12000 ng/mL
same,half-life,"[5]; po, 20 mg/kg",2.7 h
same,AUC,"[5]; po, 100 mg/kg, AUC",81000 ng·h/mL
same,Cmax,"[5]; po, 100 mg/kg",41000 ng/mL
same,half-life,"[5]; po, 100 mg/kg",2.7 h
"N[C@@H](C(=O)N[C@@H]1C(=O)N2C(C(=O)O)=C(C=CCSc3cnn[nH]3)CS[C@H]12)c1ccc(O)cc1 [Compound 21, 7β-[D-2-Amino-2-(p-hydroxyphenyl)acetamido]-3-[3-(1H-1,2,3-triazol-5-yl)thio-1-propen-1-yl]-3-cephem-4-carboxylic Acid]",MIC,[2]; [12],2.7 µg/mL
same,MIC,[4]; run 1,0.61 µg/mL
same,AUC,"[5]; im, 20 mg/kg, AUC*",9600 ng·h/mL
same,Cmax,"[5]; im, 20 mg/kg",16000 ng/mL
same,half-life,"[5]; im, 20 mg/kg",0.54 h
same,AUC,"[5]; po, 20 mg/kg, AUC*",6600 ng·h/mL
same,Cmax,"[5]; po, 20 mg/kg",1700 ng/mL
same,half-life,"[5]; po, 20 mg/kg",2.6 h
same,AUC,"[5]; po, 100 mg/kg, AUC",19000 ng·h/mL
same,Cmax,"[5]; po, 100 mg/kg",4400 ng/mL
same,half-life,"[5]; po, 100 mg/kg",3.2 h
same,oral absorption,[11],Uniformly good oral absorption is reflected except for Compound No. 21
